Experiments:
ALK-wt = biological target: T1, ALK-wt (Homo sapiens, UniProt Q9UM73); assay: Biochemical kinase assay, ALK-wt kinase domain; conditions: apparent inhibitory constant, Morrison equation; ATP 2 mM in substrate solution; read-out: ALK-wt Ki^app
T1 construct: purchased Carna 08-518
In short: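 Compound in DMSO added first, then substrate solution (ATP 2 mM; AQT0101 or AQT0104, 26 μM; pH 7.5 HEPES, 10 mM MgCl2), then kinase solution with enzyme at 0.5–3 nM depending on construct. Kinetic read every 2 min for 120 min at 30° C; Ki^app by Morrison regression.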

ALK L1196M/G1202R = biological target: T2, ALK L1196M/G1202R (Homo sapiens, UniProt Q9UM73, G1202R/L1196M); assay: Biochemical kinase assay, ALK L1196M/G1202R kinase domain; conditions: apparent inhibitory constant, Morrison equation; ATP 2 mM in substrate solution; read-out: ALK-L1196M-G1202R Ki^app
T2 construct: purchased SignalChem A19-12NG
In short: (§1)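 Continuous fluorescence read (λ=485 nm, every 2 min, 120 min, 30° C). Substrate solution held 2 mM ATP and 26 μM AQT0101 (ROS1/ALK) or AQT0104 (TRKA). Kinase solution: ROS1-G2032R 0.5 nM, ROS1-wt 0.6 nM, TRKA 1 nM, ALK double mutant 3 nM. Initial linear rates fed a Morrison-equation fit giving Ki^app.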

ROS1-wt = biological target: T3, ROS1-wt (Homo sapiens, UniProt P08922); assay: Biochemical kinase assay, ROS1-wt kinase domain; conditions: apparent inhibitory constant, Morrison equation; ATP 2 mM in substrate solution; read-out: ROS1-wt Ki^app
T3 construct: purchased Carna 08-163
In short: (§2)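 Kinetic read: 485 nm, 2-min intervals, 120 min, 30 °C. Substrate mix — ATP 2 mM, AQT0101 26 μM, HEPES 50 mM pH 7.5, MgCl2 10 mM. Output: Ki^app, Morrison equation.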

ROS1-G2032R = biological target: T4, ROS1-G2032R (Homo sapiens, UniProt P08922, G2032R); assay: Biochemical kinase assay, ROS1-G2032R kinase domain; conditions: apparent inhibitory constant, Morrison equation; ATP 2 mM in substrate solution; read-out: ROS1-G2032R Ki^app
T4 construct: purchased SignalChem R14-12BG
In short: as §2

TRKA-wt = biological target: T5, TRKA-wt (Homo sapiens, UniProt P04629); assay: Biochemical kinase assay, TRKA-wt kinase domain; conditions: apparent inhibitory constant, Morrison equation; ATP 2 mM in substrate solution; read-out: TRKA-wt Ki^app
T5 construct: or TRKA-wt (1 nM, BPS Bio, 40280) kinase domains in buffer; purchased BPS Bio 40280
In short: as §1

[1] = biological target: T6, Ba/F3 cells CD74-ROS1 wild-type (wt) (Homo sapiens, UniProt P08922); assay: Ba/F3 cell proliferation assay, CD74-ROS1 wild-type; assay type: cell-based; conditions: 72 hours, CellTiter-Glo
T6 construct: fusion of the C-terminus of ROS1 with the N-terminus of various partner proteins; host or cells: Ba/F3 (RIKEN), retroviral pMSCV-puro; the other entry of the earlier key: CD74 (P04233, HLA class II histocompatibility antigen gamma chain)
In short: (§3)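 Cells seeded 1 day, then treated with 3-fold compound dilutions for 72 h; viability by CellTiter-Glo luminescence. IC50 from percent inhibition by four-parameter logistic fit.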

[2] = biological target: T7, Ba/F3 cells CD74-ROS1 G2032R (Homo sapiens, UniProt P08922, G2032R); assay: Ba/F3 cell proliferation assay, CD74-ROS1 G2032R; assay type: cell-based; conditions: 72 hours, CellTiter-Glo
T7 construct: fusion of the C-terminus of ROS1 with the N-terminus of various partner proteins; host or cells: Ba/F3 (RIKEN), retroviral pMSCV-puro; the other entry of the earlier key: CD74 (P04233, HLA class II histocompatibility antigen gamma chain)
In short: as §3

[3] = biological target: T8, Ba/F3 cells EML4-ALK wt (variant 1) (Homo sapiens, UniProt Q9UM73); assay: Ba/F3 cell proliferation assay, EML4-ALK wt (variant 1); assay type: cell-based; conditions: 72 hours, CellTiter-Glo
T8 construct: echinoderm microtubule-associated protein-like 4 (EML4) gene and the ALK tyrosine kinase domain; host or cells: Ba/F3 (RIKEN), retroviral pMSCV-puro; the other entry of the earlier key: EML4 (Q9HC35, Echinoderm microtubule-associated protein-like 4)
In short: (§4)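 First, Ba/F3 cells were made IL-3-independent via retroviral fusion expression and puromycin selection, then cloned by single-cell dilution. Next, 1,000 cells/well were plated for a day, exposed to 3-fold diluted compounds for 72 hours, and lysed with CellTiter-Glo. Finally, IC50 was fitted by four-parameter logistic regression.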

[4] = biological target: T9, Ba/F3 cells EML4-ALK L1196M/G1202R (variant 1) (Homo sapiens, UniProt Q9UM73, G1202R/L1196M); assay: Ba/F3 cell proliferation assay, EML4-ALK L1196M/G1202R (variant 1); assay type: cell-based; conditions: 72 hours, CellTiter-Glo
T9 construct: echinoderm microtubule-associated protein-like 4 (EML4) gene and the ALK tyrosine kinase domain; host or cells: Ba/F3 (RIKEN), retroviral pMSCV-puro; the other entry of the earlier key: EML4 (Q9HC35, Echinoderm microtubule-associated protein-like 4)
In short: as §4

Ba/F3 cells TPM3-TRKA = biological target: T10, Ba/F3 cells TPM3-TRKA (Homo sapiens, UniProt P04629); assay: Ba/F3 cell proliferation assay, TPM3-TRKA; assay type: cell-based; conditions: 72 hours, CellTiter-Glo, read-out: TPM3-NTRK1-wt IC50
T10 construct: host or cells: Ba/F3 (RIKEN), retroviral pMSCV-puro; the other entry of the earlier key: TPM3 (P06753, Tropomyosin alpha-3 chain)
In short: as §4

[5] = test system: TPM3-NTRK1-wt IC50 / primary target IC50 (e.g. CD74-ROS1-wt); assay: TRKA selectivity in Ba/F3 cells (TRKA potency divided by primary target potency); assay type: cell-based; conditions: for TPM3-NTRK1-wt/CD74-ROS1-G2032R selectivity ratio: TRKA potency / CD74-ROS1-G2032R potency; for TPM3-NTRK1-wt/CD74-ROS1-wt selectivity ratio: TRKA potency / CD74-ROS1-wt potency; for TPM3-NTRK1-wt/EML4-ALK-L1196M-G1202R selectivity ratio: TRKA potency / EML4-ALK-L1196M-G1202R potency; for TPM3-NTRK1-wt/EML4-ALK-wt selectivity ratio: TRKA potency / EML4-ALK-wt potency
Protocol: TRKA selectivity was calculated by dividing a compound's TRKA potency by its primary target potency (e.g. TPM3-NTRK1-wt IC50/CD74-ROS1-wt IC50). Compound selectivity can be interpreted by binning ratio values: bin A for very high selectivity, ratio >30-fold; bin B for high selectivity, ratio >10-fold; bin C for moderate selectivity, ratio ≥1; and bin D for low selectivity, ratio <1. […] (nd=not determined).

T1 sequence (Q9UM73 1116-1392 limits assumed): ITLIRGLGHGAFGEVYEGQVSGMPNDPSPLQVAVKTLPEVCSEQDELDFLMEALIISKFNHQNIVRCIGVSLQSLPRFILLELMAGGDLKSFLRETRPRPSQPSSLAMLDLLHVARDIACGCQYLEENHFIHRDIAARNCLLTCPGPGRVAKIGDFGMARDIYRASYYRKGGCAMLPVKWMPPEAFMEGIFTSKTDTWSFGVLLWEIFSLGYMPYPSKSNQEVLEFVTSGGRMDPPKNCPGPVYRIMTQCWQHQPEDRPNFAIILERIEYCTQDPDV
T10 sequence (P04629 510-796 limits assumed): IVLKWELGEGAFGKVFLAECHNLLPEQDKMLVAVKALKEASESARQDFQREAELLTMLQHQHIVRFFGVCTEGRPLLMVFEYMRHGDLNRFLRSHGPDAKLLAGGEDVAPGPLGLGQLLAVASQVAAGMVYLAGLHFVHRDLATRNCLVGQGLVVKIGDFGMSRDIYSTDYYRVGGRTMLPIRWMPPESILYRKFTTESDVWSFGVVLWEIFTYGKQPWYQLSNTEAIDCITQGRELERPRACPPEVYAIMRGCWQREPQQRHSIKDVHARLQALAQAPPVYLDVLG
T3 sequence (P08922 1945-2222 limits assumed): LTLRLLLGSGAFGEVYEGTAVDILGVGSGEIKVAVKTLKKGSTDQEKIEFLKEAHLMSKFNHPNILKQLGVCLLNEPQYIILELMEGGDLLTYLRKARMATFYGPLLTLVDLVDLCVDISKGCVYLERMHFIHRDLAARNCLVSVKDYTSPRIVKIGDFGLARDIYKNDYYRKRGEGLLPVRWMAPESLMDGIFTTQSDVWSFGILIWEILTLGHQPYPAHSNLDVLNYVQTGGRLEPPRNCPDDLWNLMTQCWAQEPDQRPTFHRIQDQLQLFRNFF
T2 sequence (Q9UM73 1116-1392 L1196M/G1202R limits assumed): as the sequence (Q9UM73 1116-1392 limits assumed) above, with L81M, G87R counted along it
T6 sequence (P08922 1883-2347 limits assumed): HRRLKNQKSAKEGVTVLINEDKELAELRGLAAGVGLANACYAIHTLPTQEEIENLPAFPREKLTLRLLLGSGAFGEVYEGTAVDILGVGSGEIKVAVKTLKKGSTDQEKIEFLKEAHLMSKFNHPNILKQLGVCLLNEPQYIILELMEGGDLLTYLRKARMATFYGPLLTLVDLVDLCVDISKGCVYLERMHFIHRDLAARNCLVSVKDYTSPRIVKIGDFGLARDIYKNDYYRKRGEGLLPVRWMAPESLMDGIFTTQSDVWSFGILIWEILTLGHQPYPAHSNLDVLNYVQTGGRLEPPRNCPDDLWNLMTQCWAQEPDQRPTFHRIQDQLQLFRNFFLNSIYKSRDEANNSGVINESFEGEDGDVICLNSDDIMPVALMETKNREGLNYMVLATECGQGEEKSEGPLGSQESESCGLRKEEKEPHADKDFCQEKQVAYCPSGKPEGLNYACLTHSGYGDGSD
T7 sequence (P08922 1883-2347 G2032R limits assumed): as the sequence (P08922 1883-2347 limits assumed) above, with G150R counted along it
T4 sequence (P08922 1945-2222 G2032R limits assumed): as the sequence (P08922 1945-2222 limits assumed) above, with G88R counted along it
T5 sequence (P04629 510-781 limits assumed): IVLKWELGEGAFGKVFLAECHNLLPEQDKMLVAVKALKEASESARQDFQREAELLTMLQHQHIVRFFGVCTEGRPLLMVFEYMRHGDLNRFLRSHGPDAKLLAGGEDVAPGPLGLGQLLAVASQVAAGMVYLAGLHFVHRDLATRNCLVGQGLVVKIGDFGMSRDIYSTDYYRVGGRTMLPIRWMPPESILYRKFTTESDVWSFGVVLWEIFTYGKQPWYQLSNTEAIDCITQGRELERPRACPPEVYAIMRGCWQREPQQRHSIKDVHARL
T8 sequence (Q9UM73 with tags, fused parts or gaps): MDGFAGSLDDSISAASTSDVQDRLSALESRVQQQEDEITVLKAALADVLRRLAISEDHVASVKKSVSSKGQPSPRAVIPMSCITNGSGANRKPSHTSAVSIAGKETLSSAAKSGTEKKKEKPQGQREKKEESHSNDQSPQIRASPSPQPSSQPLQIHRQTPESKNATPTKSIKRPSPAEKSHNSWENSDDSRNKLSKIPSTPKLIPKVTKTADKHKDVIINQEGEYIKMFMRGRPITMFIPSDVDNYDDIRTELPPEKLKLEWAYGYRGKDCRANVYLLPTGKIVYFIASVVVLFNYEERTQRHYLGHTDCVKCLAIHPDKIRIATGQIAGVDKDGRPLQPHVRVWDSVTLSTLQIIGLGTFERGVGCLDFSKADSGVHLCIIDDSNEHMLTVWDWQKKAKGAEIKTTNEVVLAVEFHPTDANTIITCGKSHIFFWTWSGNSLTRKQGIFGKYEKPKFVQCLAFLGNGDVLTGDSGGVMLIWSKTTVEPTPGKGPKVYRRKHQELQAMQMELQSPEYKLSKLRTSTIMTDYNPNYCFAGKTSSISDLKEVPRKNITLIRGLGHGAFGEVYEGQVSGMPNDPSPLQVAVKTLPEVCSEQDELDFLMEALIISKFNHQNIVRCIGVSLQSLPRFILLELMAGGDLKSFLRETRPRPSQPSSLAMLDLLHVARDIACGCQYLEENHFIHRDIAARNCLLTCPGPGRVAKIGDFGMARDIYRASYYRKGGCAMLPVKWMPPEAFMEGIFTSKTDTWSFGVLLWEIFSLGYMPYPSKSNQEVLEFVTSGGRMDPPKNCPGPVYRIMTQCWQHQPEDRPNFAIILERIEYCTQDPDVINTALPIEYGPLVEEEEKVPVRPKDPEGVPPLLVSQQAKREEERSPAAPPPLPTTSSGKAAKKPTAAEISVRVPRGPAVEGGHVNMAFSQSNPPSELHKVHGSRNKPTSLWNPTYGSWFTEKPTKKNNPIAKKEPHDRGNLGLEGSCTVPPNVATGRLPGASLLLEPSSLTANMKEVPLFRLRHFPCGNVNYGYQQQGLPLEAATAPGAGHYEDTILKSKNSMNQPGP
T9 sequence (Q9UM73 with tags, fused parts or gaps L1196M/G1202R): as the sequence (Q9UM73 with tags, fused parts or gaps) above, with L635M, G641R counted along it

| Compound | Ki (ALK-wt) [µM] | Ki (ALK L1196M/G1202R) [µM] | Ki (ROS1-wt) [µM] | Ki (ROS1-G2032R) [µM] | Ki (TRKA-wt) [µM] | IC50 [1] [µM] | IC50 [2] [µM] | IC50 [3] [µM] | IC50 [4] [µM] | IC50 (Ba/F3 cells TPM3-TRKA) [µM] | TPM3-NTRK1-wt/CD74-ROS1-G2032R selectivity ratio [5] | TPM3-NTRK1-wt/CD74-ROS1-wt selectivity ratio [5] | TPM3-NTRK1-wt/EML4-ALK-L1196M-G1202R selectivity ratio [5] | TPM3-NTRK1-wt/EML4-ALK-wt selectivity ratio [5] |
| --- | --- | --- | --- | --- | --- | --- | --- | --- | --- | --- | --- | --- | --- | --- |
| CCn1ncc2c1-c1cnc(N)c(c1)O[C@H](C)c1cc(F)ccc1-n1nc(C)nc1C2 [Example 40, (19R)-3-ethyl-16-fluoro-10,19-dimethyl-20-oxa-3,4,9,11,12,23-hexaazapentacyclo[19.3.1.0^2,^6.0^8,^12.0^13,^18] pentacosa 1(24),2(6),4,8,10,13,15,17,21(25),22-decaen-22-amine] | < 0.05 | < 0.05 | < 0.05 | < 0.05 | 0.05 to 0.5 | 0.0001 to 0.05 | 0.0001 to 0.05 | 0.0001 to 0.05 | 0.05 to 0.5 | 0.05 to 0.5 | A (bin A for very high selectivity, ratio >30-fold) | A (bin A for very high selectivity, ratio >30-fold) | C (bin C for moderate selectivity, ratio ≥1) | B (bin B for high selectivity, ratio >10-fold) |
| C[C@H]1Oc2cc(cnc2N)-c2c(cnn2C2CCC2)Cc2ncnn2-c2ccc(F)cc21 [Example 41, (19R)-3-cyclobutyl-16-fluoro-19-methyl-20-oxa-3,4,9,11,12,23-hexaazapentacyclo[19.3.1.0^2,^6.0^8,^12.0^13,^18]pentacosa-1(24),2(6),4,8,10,13,15,17,21(25),22-decaen-22-amine] | < 0.05 | < 0.05 | < 0.05 | < 0.05 | > 0.5 | 0.0001 to 0.05 | 0.0001 to 0.05 | 0.0001 to 0.05 | 0.0001 to 0.05 | > 0.5 | A (bin A for very high selectivity, ratio >30-fold) | A (bin A for very high selectivity, ratio >30-fold) | B (bin B for high selectivity, ratio >10-fold) | A (bin A for very high selectivity, ratio >30-fold) |
| CCn1ncc2c1-c1cnc(N)c(c1)O[C@H](C)c1cc(F)ccc1-n1ccnc1C2 [Example 42, (19R)-3-ethyl-16-fluoro-19-methyl-20-oxa-3,4,9,12,23-pentaazapentacyclo[19.3.1.0^2,^6.0^8,^12.0^13,^18]pentacosa-1(24),2(6),4,8,10,13,15,17,21(25),22-decaen-22-amine] | < 0.05 | < 0.05 | < 0.05 | < 0.05 | 0.05 to 0.5 | 0.0001 to 0.05 | 0.0001 to 0.05 | 0.0001 to 0.05 | 0.05 to 0.5 | 0.05 to 0.5 | A (bin A for very high selectivity, ratio >30-fold) | A (bin A for very high selectivity, ratio >30-fold) | C (bin C for moderate selectivity, ratio ≥1) | B (bin B for high selectivity, ratio >10-fold) |
| CCc1nsc2c1-c1cnc(N)c(c1)O[C@H](C)c1cc(F)ccc1-c1ncnn1C2 [Example 44, (19R)-3-ethyl-16-fluoro-19methyl-20-oxa-5-thia-4,8,9,11,23-pentaazapentacyclo[19.3.1.0^2,^6.0^8,^12.0^13,^18]pentacosa-1(24),2(6),3,9,11,13,15,17,21(25),22-decaen-22-amine] | < 0.05 | 0.05 to 0.5 | < 0.05 | 0.05 to 0.5 | > 0.5 | 0.0001 to 0.05 | 0.0001 to 0.05 | 0.0001 to 0.05 | 0.05 to 0.5 | > 0.5 | A (bin A for very high selectivity, ratio >30-fold) | A (bin A for very high selectivity, ratio >30-fold) | C (bin C for moderate selectivity, ratio ≥1) | A (bin A for very high selectivity, ratio >30-fold) |

Now from value to molecule, other results behind:

| Ki (ALK-wt) [µM] | Ki (ALK L1196M/G1202R) [µM] | Ki (ROS1-wt) [µM] | Ki (ROS1-G2032R) [µM] | Ki (TRKA-wt) [µM] | IC50 [1] [µM] | IC50 [2] [µM] | IC50 [3] [µM] | IC50 [4] [µM] | IC50 (Ba/F3 cells TPM3-TRKA) [µM] | Compound | TPM3-NTRK1-wt/CD74-ROS1-G2032R selectivity ratio [5] | TPM3-NTRK1-wt/CD74-ROS1-wt selectivity ratio [5] | TPM3-NTRK1-wt/EML4-ALK-L1196M-G1202R selectivity ratio [5] | TPM3-NTRK1-wt/EML4-ALK-wt selectivity ratio [5] |
| --- | --- | --- | --- | --- | --- | --- | --- | --- | --- | --- | --- | --- | --- | --- |
| < 0.05 | < 0.05 | < 0.05 | < 0.05 | > 0.5 | 0.0001 to 0.05 | 0.0001 to 0.05 | 0.0001 to 0.05 | 0.05 to 0.5 | > 0.5 | Cc1nn(CC2CC2)c2c1Cn1nccc1-c1ccc(F)cc1[C@@H](C)Oc1cc-2cnc1N [Example 45, (19R)-3-(cyclopropylmethyl)-16-fluoro-5,19-dimethyl-20-oxa-3,4,8,9,23-pentaazapentacyclo[19.3.1.0^2,^6.0^8,^12.0^13,^18]pentacosa-1(24),2(6),4,9,11,13,15,17,21(25),22-decaen-22-amine] | A (bin A for very high selectivity, ratio >30-fold) | A (bin A for very high selectivity, ratio >30-fold) | A (bin A for very high selectivity, ratio >30-fold) | A (bin A for very high selectivity, ratio >30-fold) |
| < 0.05 | 0.05 to 0.5 | < 0.05 | 0.05 to 0.5 | > 0.5 | 0.0001 to 0.05 | 0.0001 to 0.05 | 0.0001 to 0.05 | 0.05 to 0.5 | > 0.5 | C[C@H]1Oc2cc(cnc2N)-c2c(C#N)ncn2Cc2nccnc2-c2ccc(F)cc21 [Example 46, (20R)-23-amino-17-fluoro-20-methyl-21-oxa-4,6,9,12,24-pentaazapentacyclo[20.3.1.0^2,^6.0^8,^13.0^14,^19]hexacosa-1(25),2,4,8(13),9,11,14,16,18,22(26),23-undecaene-3-carbonitrile] | A (bin A for very high selectivity, ratio >30-fold) | A (bin A for very high selectivity, ratio >30-fold) | A (bin A for very high selectivity, ratio >30-fold) | A (bin A for very high selectivity, ratio >30-fold) |
| < 0.05 | 0.05 to 0.5 | < 0.05 | > 0.5 | > 0.5 | 0.0001 to 0.05 | 0.05 to 0.5 | 0.0001 to 0.05 | > 0.5 | > 0.5 | C[C@H]1Oc2cc(cnc2N)-c2c(C#N)cnn2Cc2nccnc2-c2ccc(F)cc21 [Example 47] | B (bin B for high selectivity, ratio >10-fold) | A (bin A for very high selectivity, ratio >30-fold) | C (bin C for moderate selectivity, ratio ≥1) | A (bin A for very high selectivity, ratio >30-fold) |

— patent publication US12054498B2, “Heteroaromatic macrocyclic ether chemotherapeutic agents” (Nuvalent, Inc., priority 2020, dated 2024)
